The text below walks through data of BindingDB's records for patent US20250066353 (Athos Therapeutics, 2025).

In the assay the target is T1, Pantetheinase (Homo sapiens, UniProt O95497).
T1 sequence (O95497 whole entry): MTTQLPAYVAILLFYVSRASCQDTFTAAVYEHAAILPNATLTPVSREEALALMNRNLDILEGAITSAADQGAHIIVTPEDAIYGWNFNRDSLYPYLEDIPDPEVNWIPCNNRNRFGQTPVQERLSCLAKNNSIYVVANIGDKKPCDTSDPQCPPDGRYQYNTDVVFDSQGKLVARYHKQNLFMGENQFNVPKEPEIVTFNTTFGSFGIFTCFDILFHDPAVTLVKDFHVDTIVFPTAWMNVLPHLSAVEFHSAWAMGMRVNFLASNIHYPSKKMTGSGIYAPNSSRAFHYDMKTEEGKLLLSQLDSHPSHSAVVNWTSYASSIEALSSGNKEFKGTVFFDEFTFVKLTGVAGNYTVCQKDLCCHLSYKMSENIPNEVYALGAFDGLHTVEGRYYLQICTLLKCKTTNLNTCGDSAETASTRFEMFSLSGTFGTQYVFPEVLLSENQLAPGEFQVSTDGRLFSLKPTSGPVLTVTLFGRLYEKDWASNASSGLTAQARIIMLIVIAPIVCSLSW
The assay is described as follows: VNN1 Inhibitor Binding Assay. How it is done:
5 μL of 3× (45 μM) of Pantothenate-AMC to achieve final concentrations of 15 μM (0.25% DMSO final) were added in a 384 well assay plate followed by the addition of 5 μL of 3× the desired concentration of the tested compounds (Compound 1; Compound 2; and RR6) in 0.75% DMSO to designated wells (0.25% of DMSO final). The range of the compound concentrations tested was 10, 3.33, 1.11, 0.37, 0.12, 0.04, 0.01, 0.0046, 0.001, and 0.0005 μM. 5 μL of 0.75% DMSO were also added to positive and negative control wells.5 μL of 1.4 ng/μL Vanain-1 was added to the assay plate to achieve a final amount of 7 ng/well, and covered with plate sealer. Another 5 μL of assay buffer was added to negative controls and the assay plate was then centrifuged briefly (1000 rpm for 30 s) in a plate centrifuge. The assay plate was incubated in the dark for 20 minutes at room temperature and immediately read on an Envision 2105, PerkinElmer multimode plate reader.The fluorescence read was captured at excitation wavelength of 355 nm and emission wavelength of 460 nm.

As for `CC(=O)NCCN1Cc2nc(NCc3cncc(C#N)c3)ccc2C1=O` [US20250066353, Compound 41], the IC50 was > 10 µM.
